Like-named read-outs stand apart in the source and are kept apart here.
Legend:
[1] = test system: P. falciparum Dd2 (PfLuc) line expressing firefly luciferase, asexual blood stage; assay: microbe, parasite or virus in culture; format: cell-based, Plasmodium falciparum; conditions: Plasmodium falciparum
P. falciparum Dd2 = assay: SYBR green I asexual blood stage proliferation assay (96 h); format: cell-based, Plasmodium falciparum; conditions: for IC50 / Emax: Plasmodium falciparum
[2] = test system: P. berghei liver stage (PbLuc); assay: P. berghei luciferase liver stage (PbLuc) assay in HepG2-A16-CD81 hepatocytes; format: cell-based, Plasmodium berghei
[3] = HepG2 cytotoxicity screening (CellTiter-Glo); conditions: human, uninfected HepG2-A16-CD81 (EGFP) hepatocytes
[4] = DD2, read-out: P. falciparum Luciferase ABS 11-pt Reconfirmation Dose Response (48hr): IC50, 11-pt dose response, 48hr
[5] = DD2, 8-pt dose response, 96hr, read-out: P. falciparum Luciferase ABS 8-pt Reconfirmation Dose Response (96hr): IC50
[6] = DD2, 8-pt dose response, 96hr, read-out: P. falciparum Luciferase ABS 8-pt Reconfirmation Dose Response (96hr): Maximum inhibition (%)
[7] = DD2, 11-pt dose response, 48hr, read-out: P. falciparum Luciferase ABS 11-pt Reconfirmation Dose Response (48hr): Maximum inhibition (%)
[8] = DD2, 11-pt dose response, 96hr, read-out: P. falciparum Luciferase ABS 11-pt Reconfirmation Dose Response (96hr): IC50
[9] = DD2, 11-pt dose response, 96hr, read-out: P. falciparum Luciferase ABS 11-pt Reconfirmation Dose Response (96hr): Maximum inhibition (%)
[10] = DD2, 11-pt dose response, 96hr, read-out: P. falciparum Sybr Green I ABS 11-pt Reconfirmation Dose Response (96hr): IC50
[11] = DD2, 11-pt dose response, 96hr, read-out: P. falciparum Sybr Green I ABS 11-pt Reconfirmation Dose Response (96hr): Maximum inhibition (%)
[12] = DD2, read-out: CDD P. falciparum Luciferase ABS 11-pt Reconfirmation Dose Response (48hr): IC50 (μM), 11-pt dose response, 48hr
[13] = DD2, 8-pt dose response, 96hr, read-out: CDD P. falciparum Luciferase ABS 8-pt Reconfirmation Dose Response (96hr): IC50
[14] = DD2, 8-pt dose response, 96hr, read-out: CDD P. falciparum Luciferase ABS 8-pt Reconfirmation Dose Response (96hr): Maximum inhibition (%)
[15] = DD2, 11-pt dose response, 48hr, read-out: CDD P. falciparum Luciferase ABS 11-pt Reconfirmation Dose Response (48hr): Maximum inhibition (%)
[16] = DD2, 11-pt dose response, 96hr, read-out: CDD P. falciparum Luciferase ABS 11-pt Reconfirmation Dose Response (96hr): IC50
[17] = DD2, 11-pt dose response, 96hr, read-out: CDD P. falciparum Luciferase ABS 11-pt Reconfirmation Dose Response (96hr): Maximum inhibition (%)
[18] = DD2, Sybr Green I, 11-pt dose response, 96hr, read-out: CDD P. falciparum Sybr Green I ABS 11-pt Reconfirmation Dose Response (96hr): IC50
[19] = DD2, Sybr Green I, 11-pt dose response, 96hr, read-out: CDD P. falciparum Sybr Green I ABS 11-pt Reconfirmation Dose Response (96hr): Maximum inhibition (%)

Row | Compound | IC50 [1, 12] [µM] | IC50 [1, 13] [µM] | Emax [1, 14] [%] | Emax [1, 15] [%] | IC50 [1, 16] [µM] | Emax [1, 17] [%] | IC50 (P. falciparum Dd2; [18]) [nM] | Emax (P. falciparum Dd2; [19]) [%] | inhibition at 2 µM [3] [%] | also measured
1 | CCc1cnc(N)nc1NC(C)c1ccc(C)c(C)c1 (stereo not shown) [DDD01250400] |  |  |  |  |  |  |  |  |  | IC50 [1, 4]: 2.84 µM; IC50 [1, 5]: 1.66 µM; Emax [1, 6]: 81%; Emax [1, 7]: 94.8%; IC50 [1, 8]: 0.373 µM; Emax [1, 9]: 99.6%; IC50 (P. falciparum Dd2; [10]): 4480 nM; Emax (P. falciparum Dd2; [11]): 62.1%; confirmed liver stage activity [2]: confirmed liver stage activity
2 | CO[C@H]1CN(C(C)C)C[C@@H]1NC(=O)c1cc(-c2ccccc2O)n[nH]1 [DDD01257008] |  |  |  |  |  |  |  |  |  | IC50 [1, 4]: 7.18 µM; IC50 [1, 5]: 1.29 µM; Emax [1, 6]: 94.7%; Emax [1, 7]: 87.1%; IC50 [1, 8]: 3.21 µM; Emax [1, 9]: 97.2%; IC50 (P. falciparum Dd2; [10]): 4520 nM; Emax (P. falciparum Dd2; [11]): 94.2%
3 | CC(C)n1ccnc1C1CCCN(c2ccnc3ccccc23)C1 (stereo not shown) [DDD01257414] | 2.09 | 0.8 | 94.6 | 95.8 | 1.64 | 99.7 | 1940 | 98.5 |  | 
4 | CC(C)N1CCC(NCc2cccnc2N(C)Cc2ccccc2)CC1 [DDD01257477] | > 12.5 | 0.45 | 89.2 | 61.1 | 3.84 | 87.8 | 163 |  |  | 
5 | Cc1nc[nH]c1CN(C)CC1CCCN(CCc2ccc(Cl)cc2)C1 (stereo not shown) [DDD01257555] | 1.62 | 0.65 | 93.5 | 99.6 | 0.463 | 99.9 | 963 | 98.8 |  | 
6 | Clc1ccccc1C1(c2ccnc(CC3CC3)n2)CCNCC1 [DDD01257764] | 3.74 | 0.27 | 92.2 | 90.6 | 0.581 | 98 | 422 | 70.6 |  | IC50 ([1]; 96 h incubation, Dd2 luciferase, read-out: 96 hour Pfluc IC50): 0.58 µM
7 | OCC1CCCCN1c1ccc(-c2nc(-c3ccccc3F)no2)cn1 (stereo not shown) [DDD01257937] | 1.36 | 0.46 | 90.5 | 83.7 | 1.23 | 89.1 | > 12500 | 41.3 |  | 
8 | Clc1ccccc1C1(c2ccnc(-c3ccncc3)n2)CCNCC1 [DDD01257938] | 4.26 | 0.31 | 93.5 | 98.2 | 0.482 | 99.5 | 2220 | 98.9 |  | 
9 | CN(Cc1cccc(O)c1)CC1CCCN(CCc2ccc(Cl)cc2)C1 (stereo not shown) [DDD01257948] | 2.24 | 0.67 | 94.6 | 97.4 | 1.38 | 99.5 | 802 | 98 |  | 
10 | CCn1ccnc1CN1CCCC(CO)(Cc2cccc(Cl)c2)C1 (stereo not shown) [DDD01258327] |  |  |  |  |  |  |  |  |  | IC50 [1, 4]: > 12.5 µM; IC50 [1, 5]: 2.14 µM; Emax [1, 6]: 81.2%; Emax [1, 7]: 38.3%; IC50 [1, 8]: 2.68 µM; Emax [1, 9]: 82.9%; IC50 (P. falciparum Dd2; [10]): 3020 nM; Emax (P. falciparum Dd2; [11]): 58.2%
11 | COc1cc(CNCC(O)c2cccc(F)c2)cc2c1OCO2 (stereo not shown) [DDD01296688] | 3.64 | 0.82 |  | 88.9 | 1.77 | 98.5 | 4840 | 88.3 |  | 
12 | COc1cc(CNCC(O)c2ccc(F)cc2F)cc2c1OCO2 (stereo not shown) [DDD01296730] |  |  |  |  |  |  |  |  |  | IC50 [1, 4]: 4.89 µM; IC50 [1, 5]: 1.16 µM; Emax [1, 6]: 88.4%; Emax [1, 7]: 87.3%; IC50 [1, 8]: 2.48 µM; Emax [1, 9]: 98.1%; IC50 (P. falciparum Dd2; [10]): 4870 nM
13 | O=C(Nc1ccc(OC2CCCC2)cc1)C1CCCN1c1nccs1 (stereo not shown) [DDD01297375, O=C(Nc1ccc(OC2CCCC2)cc1)C1CCCN1c1nccs1] |  |  |  |  |  |  |  |  |  | IC50 ([1]; DD2, read-out: CDD P. falciparum Luc 11pt dose response (96hr, n=2): IC50 (μM), 96hr, 11-point, n=2): 0.0372 µM; IC50 ([1]; DD2, read-out: CDD P. falciparum Luciferase 11pt dose response (48hr, n=2): IC50 (μM), 48hr, 11-point, n=2): > 10 µM; Emax ([1]; DD2, 48hr, 11-point, read-out: CDD P. falciparum Luciferase ABS 11-pt Reconfirmation Dose Response (48hr): Maximum inhibition (%)): 50%; Emax ([1]; DD2, 96hr, 11-point, read-out: CDD P. falciparum Luciferase ABS 11-pt Reconfirmation Dose Response (96hr): Maximum inhibition (%)): 94.7%; CDD P. falciparum Sybr Green I ABS Dd2 Dose Response: Maximum measured (%) (P. falciparum Dd2; Dd2, 96 h): 45.3%; IC50 (P. falciparum Dd2; DD2, 96 h, read-out: CDD P. falciparum Sybr Green I ABS Dd2 Dose Response: IC50): > 12500 nM
14 | OCCN1CCC(CNCc2ccccc2OC(F)(F)F)CC1 [DDD01297525] |  |  |  |  |  |  |  |  |  | IC50 [1, 4]: > 12.5 µM; IC50 [1, 5]: 1.51 µM; Emax [1, 6]: 88.7%; Emax [1, 7]: 54.6%; IC50 [1, 8]: 5.42 µM; Emax [1, 9]: 88.7%; IC50 (P. falciparum Dd2; [10]): 7440 nM; Emax (P. falciparum Dd2; [11]): 77.9%
15 | CC(O)CN1CCC(CNCc2cccc(OC(F)(F)F)c2)CC1 (stereo not shown) [DDD01297560] | > 12.5 | 1.04 | 91 | 58.6 | 5.4 | 87.8 | 2940 | 91.2 |  | 
16 | Cc1ccnc(NC(=O)c2[nH]nc(C(C)C)c2Br)c1 [DDD01298775] | 3.6 | 0.39 | 91.3 | 93 | 1.39 | 97 | 8740 | 51.2 |  | 
17 | CC(C)c1n[nH]c(C(=O)Nc2ccccn2)c1Br [DDD01298780] | 4.01 | 0.53 | 92.3 | 87.6 | 3.99 | 95.1 | 4270 | 51.4 |  | 

Row | Compound | IC50 [1, 12] [µM] | IC50 [1, 13] [µM] | Emax [1, 14] [%] | Emax [1, 15] [%] | IC50 [1, 16] [µM] | Emax [1, 17] [%] | IC50 (P. falciparum Dd2; [18]) [nM] | Emax (P. falciparum Dd2; [19]) [%] | inhibition at 2 µM [3] [%] | also measured
18 | Cc1cc(C)n(C2CN(CC(O)c3cc(F)ccc3F)C2)n1 (stereo not shown) [DDD01298957] | 1.46 | 0.21 | 94.9 | 98.6 | 0.854 | 100 | 733 | 98.5 |  | 
19 | CC(O)CN1CCC(CNCc2cccc(C(F)(F)F)c2)CC1 (stereo not shown) [DDD01300262] |  |  |  |  |  |  |  |  |  | IC50 [1, 4]: 9.69 µM; IC50 [1, 5]: 1.59 µM; Emax [1, 6]: 89.5%; Emax [1, 7]: 69.7%; IC50 [1, 8]: 4.76 µM; Emax [1, 9]: 92.7%; IC50 (P. falciparum Dd2; [10]): 2460 nM; Emax (P. falciparum Dd2; [11]): 91.1%
20 | CC(O)CN1CCC(CNCc2cccc(Cl)c2)CC1 (stereo not shown) [DDD01300263] | 5.96 | 0.76 | 89.7 | 89 | 2.57 | 98 | 3650 | 89.5 |  | 
21 | CC(O)CN1CCC(CNCc2cccc(Br)c2)CC1 (stereo not shown) [DDD01304344] | 3.63 | 0.58 | 91.2 | 92.1 | 1.64 | 98.2 | 2060 | 93.8 |  | 
22 | CC(C)c1nn(C)c(Cl)c1CNCC(O)c1cccc(F)c1 (stereo not shown) [DDD01304823] | 3.48 | 0.58 | 92.1 | 89.6 | 1.39 | 98.7 | 3660 | 92.5 |  | 
23 | CC(C)NC(=O)CNC(=O)C12CCC(=O)N1c1cc(Cl)ccc1S2 (stereo not shown) [UCSD-0589377] |  |  |  |  |  |  |  |  | 3.84 | 
24 | c1nc(N2CCCC(Cn3cncn3)C2)c2sccc2n1 (stereo not shown) [UCSD-0620442] |  |  |  |  |  |  |  |  | 1.85 | 
25 | N#Cc1nc(COc2ccc3c(c2)OCO3)oc1NC1CCCCC1 [UCSD-0630877] |  |  |  |  |  |  |  |  | 1.44 | 
26 | Cc1nc(C)c(CN2CCOC[C@H](Oc3ccccc3)C2)s1 [UCSD-0784893] |  |  |  |  |  |  |  |  | 25.2 | 
27 | Cc1cnc2c(c1NCc1cccnc1)c(=O)n(C)c(=O)n2C [UCSD-0787013] |  |  |  |  |  |  |  |  | 5.36 | 
28 | CCN1C[C@@H]2[C@@H](OC)CCN(C(=O)c3cc(C)nn3CC)[C@@H]2C1 [UCSD-0791117] |  |  |  |  |  |  |  |  | -3.65 | 
29 | CCS(=O)(=O)NCC1OCCc2cn(CC3CCOCC3)nc21 (stereo not shown) [UCSD-0791354] |  |  |  |  |  |  |  |  | -4.05 | 
30 | Cn1cnnc1S(=O)(=O)C1CCN(S(=O)(=O)c2ccc(F)c(Cl)c2)CC1 [UCSD-0795178] |  |  |  |  |  |  |  |  | 2.47 | 
31 | CCn1nc(C)c2c1cnn2CCNS(=O)(=O)c1cccs1 [UCSD-0797219] |  |  |  |  |  |  |  |  | -1.63 | 
32 | CCCNc1cc(-c2c[nH]nc2C2CCN(C(=O)C3CCC3)C2)ccn1 (stereo not shown) [UCSD-0798526] |  |  |  |  |  |  |  |  | 83.5 | 
33 | CCc1nnc2n1CCN(c1nc(C)cc(N(C)C)n1)C2 [UCSD-0803797] |  |  |  |  |  |  |  |  | 5.32 | 

Reference: PMC7155171, “Probing the Open Global Health Chemical Diversity Library for Multistage-Active Starting Points for Next-Generation Antimalarials” (ACS Infectious Diseases, 2020)
